Drawing on patent US20220047569A1, “METHOD AND COMPOUND FOR USE, IN TREATING AND/OR PREVENTING NETOSIS” (Jubilant EpiPad LLC, priority 2020, published 2022), this text covers IC50 for 22 compounds.

Structures can show the parent of a compound that is named as a salt.

In general, IC50 refers to the concentration that gives 50% inhibition.

The test system of the assay is Histone H3 Citrullination in Neutrophils. The experiment in a line: Citrullination ELISA (Citrullinated Histone H3) in calcium ionophore stimulated neutrophils. The conditions noted are these: Neutrophil; human neutrophils, 25 μM calcium ionophore, CitH3 ELISA. It counts as cell-based. On the procedure: Neutrophils were isolated according to the EasySep Direct Human Neutrophil Isolation Kit. In short, 50 mL of blood sample was drawn in a vacutainer containing K2EDTA from a healthy donor. To the whole blood, the isolation cocktail of 50 μL/mL was added. Then, in the next step 50 μL/mL of RapidSpheres™ was added to the sample. The sample was mixed evenly with the pipette and incubated for 10 minutes at room temperature. After incubation, PBS containing 1 mM EDTA was added at the ratio of 1:1 to the blood. Then the sample tube was incubated for 10 minutes. The enriched cell suspension was transferred into a new tube and RapidSpheres™ were added at 50 μL/mL to this suspension, mixed and incubated for 10 minutes at room temperature. At this step, the enriched cell suspension was carefully collected as a clear fraction into a fresh tube. Then, previous tube was replaced with the fresh tube containing enriched cell suspension. After the final separation, the clear solution of enriched cell suspension was carefully transferred to fresh tube which was ready to use for the experiment. These cells were then subjected to wash twice with plain RPMI 1640 media without Fetal Bovine Serum (FBS) and centrifuged at 1500 rpm for 5 minutes at room temperature. Cell counts were performed on each sample by Invitrogen cell counter. After the cell count, cell density was adjusted according to the experiment and re-suspended in complete RPMI media containing RPMI1640, 2% BSA and 1 mM CaCl2.
Freshly isolated neutrophils from human donor were seeded at a density of 0.5×10^6 cells in 400 μL cell suspension/well in a 24-well plate and cells were pre-incubated with the compound for 30 minutes by adding 50 μL of the 10× concentration to achieve the final 1× concentration of compound (10 μM, 1 μM and 0.1 μM). 1% DMSO was added in control wells. Then, the cells were stimulated in the presence and absence of calcium ionophore by adding 50 μL/well to achieve the final concentration of 25 μM. Upon incubation for 30 minutes with calcium ionophore, S7 nuclease was added to the wells and incubated for 10 minutes to disrupt NET DNA. Following incubation, 10 μL of 1 mM EDTA was added to inactivate nuclease. Cells were scrapped gently and transferred to the tubes, followed by centrifugation at 1500 rpm for 5 minutes. After centrifugation, supernatant was discarded, and 200 μL of lysis buffer containing PBS and 1× Protease inhibitor was added to the tubes. The obtained lysis was then subjected to mechanical shearing using Geno grinder by spin the plate at 2500 rpm for 10 minutes, followed by collection of supernatant and stored at −20° C. or immediately used for ELISA.
ELISA was performed as per Citrullinated Histone H3 ELISA Kit. All the buffer components from the kit were dissolved according to the manufactures protocol. ELISA Buffer Concentrate (10×) (Item No. 400060) and Wash Buffer Concentrate (400×) (Item No. 400060) along with polysorbate 20 (2000×) (Item No. 400035) was diluted to 1× with milliQ water. The standard for use in the ELISA was prepared as follows: • Obtain eight clean test tubes and label them, #1 through #8. Aliquot 4.9 mL of ELISA Buffer into tube #1. • Aliquot 500 μL of ELISA Buffer into the tubes #2-8. […] This tube is considered as blank, the lowest point on the standard curve.
100 μL of standards or diluted sample was added to the appropriate wells on the 96-well plate. Plates were covered with 96-well cover sheet and incubated for two hours at room temperature on an orbital shaker. The samples and standard were removed from the wells and washed four times with Wash Buffer. After the last wash, Anti-Histone H3 HRP Conjugate (Item No. 501441) (10×) stock solution was diluted in 1×ELISA buffer and 100 μL of the HRP Conjugate working solution was added to each well of the plate and incubated for one hour at room temperature on an orbital shaker. […]
On to `COc1ccc2cc(-c3nc4cc(C(=O)N5CCC[C@@H](N)C5)ccn4c3C)n(Cc3ccc(F)cc3)c2c1` [Compound 80, (R)-(3-aminopiperidin-1-yl)(2-(1-(4-fluorobenzyl)-6-methoxy-1H-indol-2-yl)-3-methylimidazo[1,2-a]pyridin-7-yl)methanone], for which the IC50 was over 1000 nM.

With `Cc1c(-c2cc3ccccc3n2Cc2ccncc2)nc2cc(C(=O)N3CCC[C@@H](N)C3)ccn12` [Compound 10, (R)-(3-aminopiperidin-1-yl)(3-methyl-2-(1-(pyridin-4-ylmethyl)-1H-indol-2-yl)imidazo[1,2-a]pyridin-7-yl)methanone], the IC50 was under 100 nM. Take `COc1ccc2cc(-c3nc4cc(C(=O)N5CCC[C@@H](N)C5)cc5c4n3CCO5)n(Cc3ncccc3F)c2c1` [Compound 119, (R)-(3-aminopiperidin-1-yl)(2-(1-((3-fluoropyridin-2-yl)methyl)-6-methoxy-1H-indol-2-yl)-3,4-dihydro-5-oxa-1,2a-diazaacenaphthylen-7-yl)methanone]: the 50% inhibitory concentration (IC50) was in the range of 100 to 1000 nM. For the compound `N[C@@H]1CCCN(C(=O)c2cc3c4c(c2)nc(-c2cc5ccccc5n2Cc2ccc(Cl)cc2)n4CCO3)C1` [Compound 99, (R)-(3-aminopiperidin-1-yl)(2-(1-(4-chlorobenzyl)-1H-indol-2-yl)-3,4-dihydro-5-oxa-1,2a-diazaacenaphthylen-7-yl)methanone], the IC50 was 100 to 1000 nM. Next, `N[C@@H]1CCCN(C(=O)c2cc3c4c(c2)nc(-c2cc5ccc(F)cc5n2CC2CC2)n4CCN3)C1` [Compound 151, (R)-(3-aminopiperidin-1-yl)(2-(1-(cyclopropylmethyl)-6-fluoro-1H-indol-2-yl)-5,6-dihydro-4H-imidazo[1,5,4-de]quinoxalin-8-yl)methanone]: under 100 nM; `Cc1c(-c2cc3cccc(Cl)c3n2CC2CC2)nc2cc(C(=O)N3CCC[C@@H](N)C3)ccn12` [Compound 44, (R)-(3-aminopiperidin-1-yl)(2-(7-chloro-1-(cyclopropylmethyl)-1H-indol-2-yl)-3-methylimidazo[1,2-a]pyridin-7-yl)methanone]: under 100 nM.

For the compound `COCCn1c(-c2nc3cc(C(=O)N4CCC[C@@H](N)C4)cc4c3n2CCO4)cc2cc(F)ccc21` [Compound 134, (R)-(3-aminopiperidin-1-yl)(2-(5-fluoro-1-(2-methoxyethyl)-1H-indol-2-yl)-3,4-dihydro-5-oxa-1,2a-diazaacenaphthylen-7-yl)methanone], the IC50 was in the range of 100 to 1000 nM. With `COc1ccc(Cn2c(-c3nc4cc(C(=O)N5CCC[C@@H](N)C5)cc5c4n3CCO5)cc3cccc(Cl)c32)cc1` [Compound 125, (R)-(3-aminopiperidin-1-yl)(2-(7-chloro-1-(4-methoxybenzyl)-1H-indol-2-yl)-3,4-dihydro-5-oxa-1,2a-diazaacenaphthylen-7-yl)methanone], the IC50 was under 100 nM. On to `N[C@@H]1CCCN(C(=O)c2cc3c4c(c2)nc(-c2cc5ccccc5n2CC(F)F)n4CCO3)C1` [Compound 133, (R)-(3-aminopiperidin-1-yl)(2-(1-(2,2-difluoroethyl)-1H-indol-2-yl)-3,4-dihydro-5-oxa-1,2a-diazaacenaphthylen-7-yl)methanone], for which the IC50 was over 1000 nM. Next, `Cc1c(-c2cc3cc(F)ccc3n2Cc2ccncc2)nc2cc(C(=O)N3CCC[C@@H](N)C3)ccn12` [Compound 74, (R)-(3-aminopiperidin-1-yl)(2-(5-fluoro-1-(pyridin-4-ylmethyl)-1H-indol-2-yl)-3-methylimidazo[1,2-a]pyridin-7-yl)methanone]: over 1000 nM; `COc1ccc2cc(-c3nc4cc(C(=O)N5CCC[C@@H](N)C5)cc5c4n3CCN5)n(CC3CC3)c2c1` [Compound 159, (R)-(3-aminopiperidin-1-yl)(2-(1-(cyclopropylmethyl)-6-methoxy-1H-indol-2-yl)-5,6-dihydro-4H-imidazo[1,5,4-de]quinoxalin-8-yl)methanone]: 100 to 1000 nM; `N[C@@H]1CCCN(C(=O)c2cc3c4c(c2)nc(-c2cc5ccccc5n2Cc2ccccn2)n4CCO3)C1` [Compound 97, (R)-(3-aminopiperidin-1-yl)(2-(1-(pyridin-2-ylmethyl)-1H-indol-2-yl)-3,4-dihydro-5-oxa-1,2a-diazaacenaphthylen-7-yl)methanone]: 100 to 1000 nM. To `Cc1c(-c2cc3ccc(F)cc3n2CC2CC2)nc2cc(C(=O)N3CCC[C@@H](N)C3)ccn12` [Compound 52, (R)-(3-aminopiperidin-1-yl)(2-(1-(cyclopropylmethyl)-6-fluoro-1H-indol-2-yl)-3-methylimidazo[1,2-a]pyridin-7-yl)methanone trifluoroacetic acid salt] belongs 100 to 1000 nM; to `Cc1c(-c2cc3ccccc3n2Cc2cncnc2)nc2cc(C(=O)N3CCC[C@@H](N)C3)ccn12` [Compound 58, (R)-(3-aminopiperidin-1-yl)(3-methyl-2-(1-(pyrimidin-5-ylmethyl)-1H-indol-2-yl)imidazo[1,2-a]pyridin-7-yl)methanone trifluoroacetic acid salt], over 1000 nM. With `COc1cccc(Cn2c(-c3nc4cc(C(=O)N5CCC[C@@H](N)C5)ccn4c3C)cc3ccccc32)c1` [Compound 42, (R)-(3-aminopiperidin-1-yl)(2-(1-(3-methoxybenzyl)-1H-indol-2-yl)-3-methylimidazo[1,2-a]pyridin-7-yl)methanone], the IC50 is under 100 nM. With `N[C@@H]1CCCN(C(=O)c2cc3c4c(c2)nc(-c2cc5ccccc5n2Cc2ccccc2)n4CCO3)C1` [Compound 104, (R)-(3-aminopiperidin-1-yl)(2-(1-benzyl-1H-indol-2-yl)-3,4-dihydro-5-oxa-1,2a-diazaacenaphthylen-7-yl)methanone], the IC50 fell in the range of 100 to 1000 nM. Next, `N[C@@H]1CCCN(C(=O)c2cc3c4c(c2)nc(-c2cc5ccccc5n2CC2CC2)n4CCO3)C1` [Compound 87, (R)-(3-aminopiperidin-1-yl)(2-(1-(cyclopropylmethyl)-1H-indol-2-yl)-3,4-dihydro-5-oxa-1,2a-diazaacenaphthylen-7-yl)methanone]: 100 to 1000 nM; `N[C@@H]1CCCN(C(=O)c2cc3c4c(c2)nc(-c2cc5ccccc5n2CC2CCC2)n4CCO3)C1` [Compound 127, (R)-(3-aminopiperidin-1-yl)(2-(1-(cyclobutylmethyl)-1H-indol-2-yl)-3,4-dihydro-5-oxa-1,2a-diazaacenaphthylen-7-yl)methanone]: 100 to 1000 nM. To `N[C@@H]1CCCN(C(=O)c2cc3c4c(c2)nc(-c2cc5ccc(CO)cc5n2CC2CC2)n4CCO3)C1` [Compound 147, (R)-(3-aminopiperidin-1-yl)(2-(1-(cyclopropylmethyl)-6-(hydroxymethyl)-1H-indol-2-yl)-3,4-dihydro-5-oxa-1,2a-diazaacenaphthylen-7-yl) methanone] belongs 100 to 1000 nM; to `CC(C)Cn1c(-c2nc3cc(C(=O)N4CCC[C@@H](N)C4)cc4c3n2CCO4)cc2ccccc21` [Compound 117, (R)-(3-aminopiperidin-1-yl)(2-(1-isobutyl-1H-indol-2-yl)-3,4-dihydro-5-oxa-1,2a-diazaacenaphthylen-7-yl)methanone], 100 to 1000 nM. Turning to `Cc1ncc(Cn2c(-c3nc4cc(C(=O)N5CCC[C@@H](N)C5)ccn4c3C)cc3ccccc32)s1` [Compound 49, (R)-(3-aminopiperidin-1-yl)(3-methyl-2-(1-((2-methylthiazol-5-yl)methyl)-1H-indol-2-yl)imidazo[1,2-a]pyridin-7-yl)methanone], the half-inhibitory concentration (IC50) was under 100 nM.

For `COCCn1c(-c2nc3cc(C(=O)N4CCC[C@@H](N)C4)cc4c3n2CCO4)cc2ccc(OC)cc21` [Compound 107, (R)-(3-aminopiperidin-1-yl)(2-(6-methoxy-1-(2-methoxyethyl)-1H-indol-2-yl)-3,4-dihydro-5-oxa-1,2a-diazaacenaphthylen-7-yl)methanone], the half-maximal inhibitory concentration (IC50) was in the range of 100 to 1000 nM.
